Data as given in patent US8287923B2, “Compositions and methods for treating immune disorders” (priority 2005, dated 2012).

Tested on: normal human epidermal keratinocytes (NHEK)
Test: Affymetrix gene array analysis, autoantigen gene expression
Format: cell-based
Details: 100 μM
Description: The gene array experiment was performed at the Core Facility of Genomics of the Medical College of Georgia, according to the instructions of the manufacturer (Affymetrix, Santa Clara, Calif.). Briefly, NHEK and OSC2 cells treated with 100 μM EGCG for different time period were extracted for total RNA, the RNA was processed for probes and hybridized with a cDNA microarray (HuG133A, Affymetrix) which represents 22,283 human series. DNA chips were read with a Hewlett-Packard GeneArray Scanner at a resolution of […] and were analyzed with the GeneSpring software (Silicon Genetics, Redwood City, Calif.). Details of this analysis will be published elsewhere (Hsu et al., manuscript in preparation).
Gene assays provide a valuable tool for studying the broad response of cells to agents, and we have used this approach to compare the differential effects of GTPP on gene expression in NHEK and human oral squamous carcinoma cells (Hsu, et al, manuscript in preparation). […] See also Hsu, S. et al. (2005) JPET 315:805-811, which is incorporated by reference in its entirety.

O=C(O[C@@H]1Cc2c(O)cc(O)cc2O[C@@H]1c1cc(O)c(O)c(O)c1)c1cc(O)c(O)c(O)c1 [EGCG, (−)-epigallocatechin-3-gallate]
60 kDa, SS-A/Ro (212852_s_at) expression, normalized (6 h): 0.85
Ku autoantigen, 80 kDa (208642_s_at) expression, normalized (6 h): 0.96
Ku autoantigen, 80 kDa (208643_s_at) expression, normalized (6 h): 0.98
Nuclear antigen SP100 (202863_at) expression, normalized (6 h): 0.59
Nuclear antigen SP100 (202864_s_at) expression, normalized (6 h): 0.64
Nuclear antigen SP10075 kDa (213226_at) expression, normalized (6 h): 0.43
RNA polymerase 1 (202692_s-at) expression, normalized (6 h): 0.50
SS-B/La (201138_s_at) expression, normalized (6 h): 0.57
SS-B/La (201139_s_at) expression, normalized (6 h): 0.43
centromere protein C1 (20473_at) expression, normalized (6 h): 0.87
coilin (203653_s_at) expression, normalized (6 h): 0.60
coilin (203654_s_at) expression, normalized (6 h): 0.62
fodrin-α (208611_s_at) expression, normalized (6 h): 0.56
fodrin-α (215235_s_at) expression, normalized (6 h): 0.75
golgin-67 (208797_s_at) expression, normalized (6 h): 0.92
golgin-67 (208798_x_at) expression, normalized (6 h): 0.32
golgin-67 (210425_x_at) expression, normalized (6 h): 0.19
golgin-67 (213650_at) expression, normalized (6 h): 0.69
scleroderma autoantigen 1, 75 kDa (213226_at) expression, normalized (6 h): 0.43
spectrin-β non-erythrocyctic 1 (212071_s_at) expression, normalized (6 h): 0.95
thyroid autoantigen 70 kDa (Ku antigen) (200792_at) expression, normalized (6 h): 1.13
ADPRT [poly(ADP)-ribose polymerase] expression (6 h, vs time zero): 0.992 fold
ANAP12 expression (6 h, vs time zero): 0.4 fold
ANXA11 expression (6 h, vs time zero): 2.141 fold
CALR expression (6 h, vs time zero): 1.482 fold
CBARA1 expression (6 h, vs time zero): 0.498 fold
CENPA expression (6 h, vs time zero): 0.672 fold
CENPB expression (6 h, vs time zero): 0.498 fold
CENPC1 expression (6 h, vs time zero): 0.869 fold
CHD4 expression (6 h, vs time zero): 0.916 fold
COL17A1 expression (6 h, vs time zero): 1.043 fold
CTDSP1 expression (6 h, vs time zero): 1.25 fold
CTDSP2 expression (6 h, vs time zero): 0.92 fold
CTDSPL expression (6 h, vs time zero): 2.42 fold
DLAT expression (6 h, vs time zero): 1.031 fold
EPPK1 expression (6 h, vs time zero): 1.318 fold
FBL expression (6 h, vs time zero): 1.09 fold
FLJ31657 expression (6 h, vs time zero): 0.435 fold
FLNB (Filamin B, β) expression (6 h, vs time zero): 0.751 fold
FLNB (Filamin B, γ) expression (6 h, vs time zero): 0.875 fold
G22P1 (Thyroid autoantigen, 70 kDa, Ku antigen) expression (6 h, vs time zero): 1.127 fold
GMEB2 expression (6 h, vs time zero): 0.626 fold
GOLGA1 expression (6 h, vs time zero): 0.68 fold
GOLGA2 expression (6 h, vs time zero): 0.769 fold
GOLGA3 expression (6 h, vs time zero): 0.547 fold
GOLGA4 expression (6 h, vs time zero): 0.353 fold
GOLGA5 expression (6 h, vs time zero): 0.731 fold
GOLGB1 expression (6 h, vs time zero): 0.56 fold
HARS expression (6 h, vs time zero): 0.88 fold
HARSL expression (6 h, vs time zero): 0.88 fold
HSA6591 expression (6 h, vs time zero): 0.532 fold
HUMAUANTIG expression (6 h, vs time zero): 0.444 fold
IMP-2 expression (6 h, vs time zero): 0.635 fold
LAD1 expression (6 h, vs time zero): 0.954 fold
LMO4 expression (repeat 1) (6 h, vs time zero): 0.708 fold
LMO4 expression (repeat 2) (6 h, vs time zero): 1.133 fold
MGC5560 expression (repeat 1) (6 h, vs time zero): 1.646 fold
MGC5560 expression (repeat 2) (6 h, vs time zero): 2.605 fold
NS (Nucleostemin) expression (6 h, vs time zero): 0.519 fold
PDHB expression (6 h, vs time zero): 0.745 fold
PDX1 expression (6 h, vs time zero): 0.646 fold
PMSCL1, 75 kDa expression (6 h, vs time zero): 0.431 fold
PMSCL2 expression (6 h, vs time zero): 1.058 fold
POLR1B expression (6 h, vs time zero): 0.98 fold
POLR1D expression (6 h, vs time zero): 1.04 fold
POLR2A expression (repeat 1) (6 h, vs time zero): 1.80 fold
POLR2A expression (repeat 2) (6 h, vs time zero): 0.44 fold
POLR2B expression (6 h, vs time zero): 0.59 fold
POLR2C expression (6 h, vs time zero): 1.53 fold
POLR2D expression (6 h, vs time zero): 1.04 fold
POLR2E expression (6 h, vs time zero): 0.87 fold
POLR2F expression (6 h, vs time zero): 1.17 fold
POLR2G expression (6 h, vs time zero): 0.74 fold
POLR2H expression (6 h, vs time zero): 1.02 fold
POLR3C expression (6 h, vs time zero): 0.45 fold
POLR3G expression (6 h, vs time zero): 1.05 fold
PSME3 expression (6 h, vs time zero): 1.128 fold
RALY expression (6 h, vs time zero): 1.496 fold
SART1 expression (6 h, vs time zero): 1.462 fold
SLC25A16 expression (6 h, vs time zero): 1.099 fold
SNRP70 expression (6 h, vs time zero): 2.28 fold
SNRPA expression (6 h, vs time zero): 1.35 fold
SNRPB2 expression (6 h, vs time zero): 0.56 fold
SNRPB expression (repeat 1) (6 h, vs time zero): 0.76 fold
SNRPB expression (repeat 2) (6 h, vs time zero): 0.67 fold
SNRPC expression (6 h, vs time zero): 1.28 fold
SNRPD1 expression (repeat 1) (6 h, vs time zero): 0.658 fold
SNRPD1 expression (repeat 2) (6 h, vs time zero): 0.612 fold
SOX13 expression (6 h, vs time zero): 1.24 fold
SP100 expression (repeat 1) (6 h, vs time zero): 0.59 fold
SP100 expression (repeat 2) (6 h, vs time zero): 0.686 fold
SP110 expression (repeat 1) (6 h, vs time zero): 1.205 fold
SP110 expression (repeat 2) (6 h, vs time zero): 0.997 fold
SP110 expression (repeat 3) (6 h, vs time zero): 0.7 fold
SPTAN1 (α-fodrin) expression (repeat 1) (6 h, vs time zero): 0.56 fold
SPTAN1 (α-fodrin) expression (repeat 2) (6 h, vs time zero): 0.75 fold
SPTBN expression (6 h, vs time zero): 0.95 fold
SSA2 (autoantigen SS-A/Ro) expression (repeat 2) (6 h, vs time zero): 0.687 fold
SSA2 expression (repeat 1) (6 h, vs time zero): 0.739 fold
SSA2 expression (repeat 3) (6 h, vs time zero): 0.571 fold
SSA2 expression (repeat 4) (6 h, vs time zero): 0.85 fold
SSB (autoantigen La) expression (repeat 1) (6 h, vs time zero): 0.57 fold
SSB (autoantigen La) expression (repeat 2) (6 h, vs time zero): 0.427 fold
SSNA1 expression (6 h, vs time zero): 1.608 fold
SSSCA1 expression (6 h, vs time zero): 1.005 fold
STRN3 expression (6 h, vs time zero): 0.528 fold
TOP1 expression (repeat 1) (6 h, vs time zero): 0.84 fold
TOP1 expression (repeat 2) (6 h, vs time zero): 0.33 fold
UBTF expression (6 h, vs time zero): 0.501 fold
XRCC5 (Ku autoantigen, 80 kDa) expression (repeat 1) (6 h, vs time zero): 0.977 fold
XRCC5 (Ku autoantigen, 80 kDa) expression (repeat 2) (6 h, vs time zero): 0.958 fold
dJ963E22.1 expression (6 h, vs time zero): 0.723 fold
α-NAC expression (6 h, vs time zero): 0.0443 fold
60 kDa, SS-A/Ro (210438_x_at) expression, normalized (24 h): 0.88
60 kDa, SS-A/Ro (212852_s_at) expression, normalized (24 h): 0.94
